In PMC5361737, “Potent and Selective KDM5 Inhibitor Stops Cellular Demethylation of H3K4me3 at Transcription Start Sites and Proliferation of MM1S Myeloma Cells” (Cell Chemical Biology, 2017):
Entries after “also recorded” stand apart in the source; their conditions may differ.

What was measured:
[1] = biological target: MT1 (ML1A) (h) (Homo sapiens, UniProt P48039); test: Cerep Express Panel, agonist radioligand; type: binding; details: read-out: % Inhibition of reference (10 µM)
[2] = biological target: B2 (h) (Homo sapiens, UniProt P30411); test: Cerep Express Panel, agonist radioligand; type: binding; details: read-out: % Inhibition of reference (10 µM)
B2 (h), sequence (P30411 whole entry): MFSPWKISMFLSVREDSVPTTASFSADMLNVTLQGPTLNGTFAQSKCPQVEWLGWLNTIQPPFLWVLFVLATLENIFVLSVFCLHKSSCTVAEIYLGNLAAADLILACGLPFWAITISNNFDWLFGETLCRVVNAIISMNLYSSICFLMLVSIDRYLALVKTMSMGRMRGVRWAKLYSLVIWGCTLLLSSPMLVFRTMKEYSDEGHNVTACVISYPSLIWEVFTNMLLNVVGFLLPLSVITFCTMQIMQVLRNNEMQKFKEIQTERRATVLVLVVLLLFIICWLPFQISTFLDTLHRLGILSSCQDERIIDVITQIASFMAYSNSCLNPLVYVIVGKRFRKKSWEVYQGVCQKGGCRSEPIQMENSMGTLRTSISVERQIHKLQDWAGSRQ

[3] = biological target: T1, KDM4C (Homo sapiens, UniProt Q9H3R0); test: 2-Oxoglutarate oxygenase assay panel, AlphaScreen assay; type: biochemical; details: AlphaScreen assay; ± SEM
T1 sequence (Q9H3R0 1-1056): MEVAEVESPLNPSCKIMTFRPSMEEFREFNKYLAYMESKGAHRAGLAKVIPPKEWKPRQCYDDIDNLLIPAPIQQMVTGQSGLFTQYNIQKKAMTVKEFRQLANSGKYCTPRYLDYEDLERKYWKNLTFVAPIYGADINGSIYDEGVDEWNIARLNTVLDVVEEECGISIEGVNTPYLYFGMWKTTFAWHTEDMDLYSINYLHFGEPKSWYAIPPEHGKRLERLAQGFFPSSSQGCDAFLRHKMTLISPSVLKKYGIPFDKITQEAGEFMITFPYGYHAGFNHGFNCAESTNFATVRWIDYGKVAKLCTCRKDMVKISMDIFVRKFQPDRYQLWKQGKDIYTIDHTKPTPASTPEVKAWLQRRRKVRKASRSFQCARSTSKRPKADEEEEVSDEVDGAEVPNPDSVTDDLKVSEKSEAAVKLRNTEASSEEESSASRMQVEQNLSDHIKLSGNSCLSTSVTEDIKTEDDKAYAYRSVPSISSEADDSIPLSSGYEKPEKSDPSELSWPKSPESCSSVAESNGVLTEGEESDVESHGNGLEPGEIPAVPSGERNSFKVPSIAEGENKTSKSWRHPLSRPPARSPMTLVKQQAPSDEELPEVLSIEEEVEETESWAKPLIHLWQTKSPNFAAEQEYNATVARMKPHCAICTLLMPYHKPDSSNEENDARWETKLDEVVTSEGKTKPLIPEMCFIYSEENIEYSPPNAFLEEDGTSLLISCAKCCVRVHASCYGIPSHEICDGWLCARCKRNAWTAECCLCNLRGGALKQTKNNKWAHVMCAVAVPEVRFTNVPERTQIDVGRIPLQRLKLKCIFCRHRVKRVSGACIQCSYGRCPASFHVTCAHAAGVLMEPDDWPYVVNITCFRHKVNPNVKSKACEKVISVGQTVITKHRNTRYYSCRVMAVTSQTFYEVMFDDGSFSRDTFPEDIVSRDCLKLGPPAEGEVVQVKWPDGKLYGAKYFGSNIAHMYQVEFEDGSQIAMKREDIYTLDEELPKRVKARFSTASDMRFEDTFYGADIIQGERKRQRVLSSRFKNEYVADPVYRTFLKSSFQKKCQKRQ

[4] = tested on: SKCa channel; test: Cerep Express Panel, antagonist radioligand; type: binding
[5] = biological target: PHF8 (Homo sapiens, UniProt Q9UPP1); test: 2-Oxoglutarate oxygenase assay panel, AlphaScreen assay; type: biochemical; details: ± SEM
PHF8, sequence (Q9UPP1 whole entry, species assumed): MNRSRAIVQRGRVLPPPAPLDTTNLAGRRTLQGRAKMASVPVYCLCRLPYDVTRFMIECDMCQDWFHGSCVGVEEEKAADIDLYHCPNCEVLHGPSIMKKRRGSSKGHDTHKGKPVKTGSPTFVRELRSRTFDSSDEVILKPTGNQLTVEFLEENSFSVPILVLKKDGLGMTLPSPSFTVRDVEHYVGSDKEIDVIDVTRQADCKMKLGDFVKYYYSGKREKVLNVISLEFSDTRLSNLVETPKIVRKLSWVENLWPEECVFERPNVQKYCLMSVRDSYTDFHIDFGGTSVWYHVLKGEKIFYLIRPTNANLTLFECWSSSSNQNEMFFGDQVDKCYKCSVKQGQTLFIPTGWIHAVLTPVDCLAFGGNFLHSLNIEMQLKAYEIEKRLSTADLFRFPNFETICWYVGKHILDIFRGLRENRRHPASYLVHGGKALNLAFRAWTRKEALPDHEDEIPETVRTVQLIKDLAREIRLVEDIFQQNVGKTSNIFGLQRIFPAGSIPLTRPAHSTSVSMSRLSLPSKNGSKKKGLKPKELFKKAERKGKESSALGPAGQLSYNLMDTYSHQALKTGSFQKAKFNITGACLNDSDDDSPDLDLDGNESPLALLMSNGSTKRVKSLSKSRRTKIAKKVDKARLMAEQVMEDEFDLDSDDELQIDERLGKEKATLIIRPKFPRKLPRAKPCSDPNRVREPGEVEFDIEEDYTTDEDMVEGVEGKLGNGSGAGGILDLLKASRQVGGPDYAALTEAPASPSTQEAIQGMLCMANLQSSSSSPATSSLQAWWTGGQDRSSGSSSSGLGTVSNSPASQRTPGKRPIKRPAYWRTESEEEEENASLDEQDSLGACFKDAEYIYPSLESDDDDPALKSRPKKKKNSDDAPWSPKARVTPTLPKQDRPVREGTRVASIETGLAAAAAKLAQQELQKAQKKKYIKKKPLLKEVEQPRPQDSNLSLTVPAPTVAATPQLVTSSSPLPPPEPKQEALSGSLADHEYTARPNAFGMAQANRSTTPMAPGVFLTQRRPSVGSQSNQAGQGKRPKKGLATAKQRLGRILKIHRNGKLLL

[6] = biological target: A1 (h) (Homo sapiens, UniProt P30542); test: Cerep Express Panel, antagonist radioligand; type: binding; details: read-out: % Inhibition of reference (10 µM)
A1 (h), sequence (P30542 whole entry): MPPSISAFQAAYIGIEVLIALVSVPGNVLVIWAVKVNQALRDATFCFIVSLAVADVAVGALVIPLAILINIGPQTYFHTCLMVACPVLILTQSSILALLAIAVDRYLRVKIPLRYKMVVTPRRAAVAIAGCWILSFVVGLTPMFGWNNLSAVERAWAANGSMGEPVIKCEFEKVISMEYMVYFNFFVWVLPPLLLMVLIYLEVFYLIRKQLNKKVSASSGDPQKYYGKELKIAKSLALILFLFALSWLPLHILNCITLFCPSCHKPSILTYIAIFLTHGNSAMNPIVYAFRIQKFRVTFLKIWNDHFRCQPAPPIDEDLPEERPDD

[7] = biological target: D1 (h) (Homo sapiens, UniProt P21728); test: Cerep Express Panel, antagonist radioligand; type: binding; details: read-out: % Inhibition of reference (10 µM)
D1 (h), sequence (P21728 whole entry): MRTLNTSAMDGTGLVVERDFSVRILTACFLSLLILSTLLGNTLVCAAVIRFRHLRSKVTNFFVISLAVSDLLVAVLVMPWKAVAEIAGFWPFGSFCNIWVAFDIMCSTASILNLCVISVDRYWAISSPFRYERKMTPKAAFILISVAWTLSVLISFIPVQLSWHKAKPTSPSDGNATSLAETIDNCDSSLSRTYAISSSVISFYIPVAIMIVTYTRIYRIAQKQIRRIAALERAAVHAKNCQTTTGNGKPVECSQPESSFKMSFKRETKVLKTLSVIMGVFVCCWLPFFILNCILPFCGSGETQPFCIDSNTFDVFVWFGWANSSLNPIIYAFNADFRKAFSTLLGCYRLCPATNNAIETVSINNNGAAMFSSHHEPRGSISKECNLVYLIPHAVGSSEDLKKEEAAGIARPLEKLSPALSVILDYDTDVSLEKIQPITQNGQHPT

[8] = Chemical stability in Phosphate Buffer Saline; type: physicochemical; details: PBS, 37°C, 24 hr
[9] = biological target: M1 (h) (Homo sapiens, UniProt P11229); test: Cerep Express Panel, antagonist radioligand; type: binding; details: read-out: % Inhibition of reference (10 µM)
M1 (h), sequence (P11229 whole entry): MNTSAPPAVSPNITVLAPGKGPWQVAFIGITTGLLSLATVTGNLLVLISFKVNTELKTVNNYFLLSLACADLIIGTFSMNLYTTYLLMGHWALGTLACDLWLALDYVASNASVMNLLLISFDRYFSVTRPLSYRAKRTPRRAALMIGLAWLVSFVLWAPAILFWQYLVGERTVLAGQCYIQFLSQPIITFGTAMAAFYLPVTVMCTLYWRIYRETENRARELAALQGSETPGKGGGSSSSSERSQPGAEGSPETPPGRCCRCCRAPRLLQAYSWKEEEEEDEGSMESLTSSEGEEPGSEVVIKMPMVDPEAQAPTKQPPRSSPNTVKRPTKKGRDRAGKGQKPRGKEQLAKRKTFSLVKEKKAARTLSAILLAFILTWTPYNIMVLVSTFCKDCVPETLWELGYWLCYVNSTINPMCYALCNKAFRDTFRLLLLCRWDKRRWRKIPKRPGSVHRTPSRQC

[10] = tested on: other tested JmjC family members; test: IF assay, HeLa cells overexpressing other JmjC family members; type: cell-based, human; details: overexpression IF assay, 24 hr
Excerpt: The human cervical carcinoma cell line HeLa was obtained from the American Type Cultures Collection and maintained in Eagle's minimal essential media (Sigma-Aldrich) supplemented with 10% heat-inactivated fetal bovine serum (Life Technologies). Full-length cDNA for KDM5B (JARID1B, Q9UGL1, cDNA), KDM5C (JARID1C, P41229, IMAGE 5492114), KDM4B (JMJD2B, O94953, gift from ICR), KDM4C (JMJD2C, Q9H3R0, 8143862), KDM3A (JMJD1A, Q9Y4C1, 4823253), KDM2A (FBXL11, Q9Y2K7, 5534384), and KDM6B (JMJD3, O15054, cDNA) were amplified by PCR from either an MGC clone or a commercial cDNA source, or received as a gift from collaborators and cloned into pDONR-221 vector using Gateway BP reaction producing Gateway entry clones.
[…]. Mutations were introduced into full-length KDM Gateway entry clones using 15 cycles of the QuikChange II PCR protocol (Agilent Technologies). […]
In brief, cells were transiently transfected with either the FLAG-tagged WT or mutant demethylase described above, using Lipofectamine 2000 (Life Technologies). […] After the DAPI-stained nuclei were automatically identified, a minimum threshold for anti-FLAG intensity was set so that only cells highly expressing the demethylase were analyzed. […]

[11] = biological target: VPAC1 (VIP1) (h) (Homo sapiens, UniProt P32241); test: Cerep Express Panel, agonist radioligand; type: binding; details: read-out: % Inhibition of reference (10 µM)
VPAC1 (VIP1) (h), sequence (P32241 31-457): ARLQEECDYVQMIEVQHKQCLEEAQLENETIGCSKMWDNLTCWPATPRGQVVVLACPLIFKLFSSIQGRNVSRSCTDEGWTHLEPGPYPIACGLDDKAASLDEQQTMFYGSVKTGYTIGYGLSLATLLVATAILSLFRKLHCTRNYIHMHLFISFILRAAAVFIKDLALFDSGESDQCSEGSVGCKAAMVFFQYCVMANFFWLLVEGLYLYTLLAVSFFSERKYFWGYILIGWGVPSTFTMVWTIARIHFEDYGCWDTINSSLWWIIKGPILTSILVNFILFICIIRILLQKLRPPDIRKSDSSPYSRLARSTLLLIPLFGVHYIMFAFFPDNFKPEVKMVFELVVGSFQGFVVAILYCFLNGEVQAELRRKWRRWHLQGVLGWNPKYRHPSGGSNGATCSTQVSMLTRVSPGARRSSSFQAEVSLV

[12] = biological target: D2S (h) (Homo sapiens, UniProt P14416); test: Cerep Express Panel, antagonist radioligand; type: binding; details: read-out: % Inhibition of reference (10 µM)
D2S (h), sequence (P14416 1-414 isoform P14416-2): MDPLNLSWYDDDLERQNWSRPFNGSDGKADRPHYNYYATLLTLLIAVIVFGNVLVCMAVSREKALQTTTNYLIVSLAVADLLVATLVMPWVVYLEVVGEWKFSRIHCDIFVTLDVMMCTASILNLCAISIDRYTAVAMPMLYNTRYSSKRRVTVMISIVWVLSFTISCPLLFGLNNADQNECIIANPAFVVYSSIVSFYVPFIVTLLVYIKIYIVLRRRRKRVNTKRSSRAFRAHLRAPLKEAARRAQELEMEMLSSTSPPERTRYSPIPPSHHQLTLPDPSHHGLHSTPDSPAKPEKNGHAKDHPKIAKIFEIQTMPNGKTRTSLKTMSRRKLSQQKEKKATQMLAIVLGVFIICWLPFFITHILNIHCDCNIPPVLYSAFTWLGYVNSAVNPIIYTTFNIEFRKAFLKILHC

[13] = tested on: range of other multiple myeloma cell lines; test: Cell viability, other multiple myeloma cell lines; type: cell-based; details: treated for 7 days
Excerpt: Figure S2 related to Figure 1 KDM5B Biochemical assay at different 2 -OG
Stem Cells (B) treated for 7 days. Data plotted represents the mean and standard deviation of four independent
2OG Concentration IC50 (mM) Ki […]

[14] = biological target: Y2 (h) (Homo sapiens, UniProt P49146); test: Cerep Express Panel, agonist radioligand; type: binding; details: read-out: % Inhibition of reference (10 µM)
Y2 (h), sequence (P49146 whole entry): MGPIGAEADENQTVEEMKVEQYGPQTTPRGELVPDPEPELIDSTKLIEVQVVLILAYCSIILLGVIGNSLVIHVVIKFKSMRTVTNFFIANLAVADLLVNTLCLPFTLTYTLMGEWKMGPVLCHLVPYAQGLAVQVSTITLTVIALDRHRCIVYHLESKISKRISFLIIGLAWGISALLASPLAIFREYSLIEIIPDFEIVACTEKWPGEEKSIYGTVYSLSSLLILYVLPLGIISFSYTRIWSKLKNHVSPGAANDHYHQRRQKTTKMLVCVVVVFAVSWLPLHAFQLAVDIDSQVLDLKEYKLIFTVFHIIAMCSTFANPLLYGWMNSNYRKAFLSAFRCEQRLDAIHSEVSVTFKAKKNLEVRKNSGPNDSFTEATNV

MT1 (ML1A) (h), sequence (P48039 whole entry): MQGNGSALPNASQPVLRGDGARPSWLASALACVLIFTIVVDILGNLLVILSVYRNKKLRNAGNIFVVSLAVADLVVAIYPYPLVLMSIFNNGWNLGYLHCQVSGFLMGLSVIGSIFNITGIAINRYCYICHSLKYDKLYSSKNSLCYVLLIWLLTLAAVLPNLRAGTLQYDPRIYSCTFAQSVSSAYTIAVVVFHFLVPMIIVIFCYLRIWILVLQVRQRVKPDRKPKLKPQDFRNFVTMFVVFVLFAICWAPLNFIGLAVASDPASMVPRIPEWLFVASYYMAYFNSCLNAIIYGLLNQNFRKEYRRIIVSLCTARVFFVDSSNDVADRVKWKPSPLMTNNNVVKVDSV

CCN(CCN(C)C)C(=O)CNCc1cc(C(N)=O)ccn1 [KDOAM-25]
inhibition at 10 µM [1]: 5% | inhibition at 10 µM [2]: -10% | pIC50 KDM4 C [3]: 5.3 ± 0.28 | % Inhibition of reference (10 µM) [4]: 5% | pIC50 PHF8 [5]: 5.0 ± 0.057 | inhibition at 10 µM [6]: -3% | inhibition at 10 µM [7]: 10% | hydrolysis of the amide, in words [8]: did not show any hydrolysis | inhibition at 10 µM [9]: -18% | cellular activity on other tested JmjC family members [10]: no cellular activity; also recorded: no effect | inhibition at 10 µM [11]: -12% | inhibition at 10 µM [12]: 19% | effect on viability of other multiple myeloma cells [13]: does not decrease cell viability; also recorded: did not show the same decrease in viability | inhibition at 10 µM [14]: -1%
